Results on 16 compounds are retold here after patent US20250171417A1, “HETEROCYCLIC DERIVATIVE, AND COMPOSITION AND PHARMACEUTICAL USE THEREOF” (Xizang Haisco Pharmaceutical Co., Ltd., priority 2021, published 2025).

In one test the test system is Prostate cancer cells 22RV1. Nature of the test: Experiment on inhibiting 22RV1 cell proliferation (CellTiter-Glo, 7 days). Format: cell-based. As to conditions: Homo sapiens, 168 h, 22RV1 cells, 7 days incubation, cells with nM printed beside the value, read-out: IC50 values for inhibition of 22RVI cells. The procedure: Prostate cancer cells 22RV1 were purchased from ATCC, the cell medium was RPMI 1640+10% FBS, and the cells were cultured in an incubator at 37° C. under 5% CO2. On day 1, the cells in the exponential growth phase were collected. With a 1% css-FBS phenol red-free medium, the cell suspension was adjusted to a corresponding concentration, plated at 2000 cells/well and incubated overnight. On day 2, compounds at different concentrations were added, and the plate was placed in the incubator and incubated for further 7 days. After the incubation was completed, according to operation instructions for a CellTiter-Glo kit (Promega, G7573), 50 μL of CellTiter-Glo reagents, which were already pre-melted and equilibrated to room temperature, were added to each well, and the mixtures were uniformly mixed for 2 min using a microplate shaker. The plate was placed at room temperature for 10 min. and then […] signal values were measured using a microplate reader (PHERAstar FSX). The results were processed according to formula (I), the inhibition rate of the compound at different concentrations was calculated, and the IC50 value of the compound with an inhibition rate of 50% was calculated using origin9.2 software with DoseResp function, wherein RLUcompound was the readout of the treated group, and RLUcontrol was the average value of the DMSO vehicle control group.
(In general: Cellular ATP, detected with luciferase, serves as a proxy for viable cell number.)
The IC50 is the concentration that inhibits the measured activity by half. On to `Cc1nn(C2(C(=O)Nc3ccc(C(F)(F)F)cc3Cl)CCC2)c(C)c1C#CC1CN(c2ccc3c(c2)C(=O)N(C2CCC(=O)NC2=O)C3=O)C1` (stereo not shown) [Compound 166, N-(2-chloro-4-(trifluoromethyl)phenyl)-1-(4-((1-(2-(2,6-dioxopiperidin-3-yl)-1,3-dioxoisoindolin-5-yl)azetidin-3-yl)ethynyl)-3,5-dimethyl-1H-pyrazol-1-yl)cyclobutane-1-carboxamide], for which the 50% inhibitory concentration (IC50) was below 50 nM.
The same measure, in the same setting: under `CC(C)(C(=O)Nc1ccc(C#N)cc1C1CC1)n1cc(C#CC2CN(c3ccc4c(c3)C(=O)N(C3CCC(=O)NC3=O)C4=O)C2)c(C#N)n1` (stereo not shown) [Compound 201, N-(4-cyano-2-cyclopropylphenyl)-2-(3-cyano-4-((1-(2-(2,6-dioxopiperidin-3-yl)-1,3-dioxoisoindolin-5-yl)azetidin-3-yl)ethynyl)-1H-pyrazol-1-yl)-2-methylpropanamide] stands below 100 nM; under `N#Cc1ccc(NC(=O)C2(n3cc(C#CC4CN(c5ccc6c(c5)C(=O)N(C5CCC(=O)NC5=O)C6=O)C4)cn3)CCC2)c2ccccc12` (stereo not shown) [Compound 34, N-(4-cyanonaphthalen-1-yl)-1-(4-((1-(2-(2,6-dioxopiperidin-3-yl)-1,3-dioxoisoindolin-5-yl)azetidin-3-yl)ethynyl)-1H-pyrazol-1-yl)cyclobutane-1-carboxamide], below 100 nM; under `O=C1CCC(N2C(=O)c3ccc(N4CC(C#Cc5cnn(C6(C(=O)Nc7ccc(C(F)(F)F)cc7Cl)CC6)c5)C4)cc3C2=O)C(=O)N1` (stereo not shown) [Compound 72, N-(2-chloro-4-(trifluoromethyl)phenyl)-1-(4-((1-(2-(2,6-dioxopiperidin-3-yl)-1,3-dioxoisoindolin-5-yl)azetidin-3-yl)ethynyl)-1H-pyrazol-1-yl)cyclopropane-1-carboxamide], below 50 nM.
On the same count and under the same terms, with `Cc1c(C#N)ccc(NC(=O)C(C)(C)n2cc(C#CC3CN(c4ccc5c(c4)C(=O)N(C4CCC(=O)NC4=O)C5=O)C3)cn2)c1C` (stereo not shown) [Compound 152, N-(4-cyano-2,3-dimethylphenyl)-2-(4-((1-(2-(2,6-dioxopiperidin-3-yl)-1,3-dioxoisoindolin-5-yl)azetidin-3-yl)ethynyl)-1H-pyrazol-1-yl)-2-methylpropanamide] the figure was below 50 nM; with `CC(C)(C(=O)Nc1ccc(C#N)c2c1C1CCC2C1)n1cc(C#CC2CN(c3ccc4c(c3)C(=O)N(C3CCC(=O)NC3=O)C4=O)C2)cn1` (stereo not shown) [Compound 165, N-(8-cyano-1,2,3,4-tetrahydro-1,4-methanonaphthalen-5-yl)-2-(4-((1-(2-(2,6-dioxopiperidin-3-yl)-1,3-dioxoisoindolin-5-yl)azetidin-3-yl)ethynyl)-1H-pyrazol-1-yl)-2-methylpropanamide], below 100 nM; with `O=C1CCC(N2C(=O)c3ccc(N4CC(C#Cc5cnn(C6(C(=O)Nc7ccc(C(F)(F)F)cc7C7CC7)CCC6)c5)C4)cc3C2=O)C(=O)N1` (stereo not shown) [Compound 35, N-(2-cyclopropyl-4-(trifluoromethyl)phenyl)-1-(4-((1-(2-(2,6-dioxopiperidin-3-yl)-1,3-dioxoisoindolin-5-yl)azetidin-3-yl)ethynyl)-1H-pyrazol-1-yl)cyclobutane-1-carboxamide], below 50 nM.
For the compound `CC(C)(C(=O)Nc1ccc(C#N)cc1-n1cccn1)n1cc(C#CC2CN(c3ccc4c(c3)C(=O)N(C3CCC(=O)NC3=O)C4=O)C2)cn1` (stereo not shown) [Compound 172, N-(4-cyano-2-(1H-pyrazol-1-yl)phenyl)-2-(4-((1-(2-(2,6-dioxopiperidin-3-yl)-1,3-dioxoisoindolin-5-yl)azetidin-3-yl)ethynyl)-1H-pyrazol-1-yl)-2-methylpropanamide], the IC50 is below 50 nM.
The same measure, in the same setting: with `CCC(CC)(C(=O)Nc1ccc(C#N)c(C(F)(F)F)c1)n1cc(C#CC2CN(c3ccc4c(c3)C(=O)N(C3CCC(=O)NC3=O)C4=O)C2)cn1` (stereo not shown) [Compound 41, N-(4-cyano-3-(trifluoromethyl)phenyl)-2-(4-((1-(2-(2,6-dioxopiperidin-3-yl)-1,3-dioxoisoindolin-5-yl)azetidin-3-yl)ethynyl)-1H-pyrazol-1-yl)-2-ethylbutanamide] the figure was below 50 nM; with `CC(C)(C(=O)Nc1ccc(C(F)(F)F)cc1C#CC1CC1)n1cc(C#CC2CN(c3ccc4c(c3)C(=O)N(C3CCC(=O)NC3=O)C4=O)C2)cn1` (stereo not shown) [Compound 116, N-(2-(cyclopropylethynyl)-4-(trifluoromethyl)phenyl)-2-(4-((1-(2-(2,6-dioxopiperidin-3-yl)-1,3-dioxoisoindolin-5-yl)azetidin-3-yl)ethynyl)-1H-pyrazol-1-yl)-2-methylpropanamide], below 50 nM.

Still in this test, the particulars now being: Homo sapiens, 168 h, 22RV1 cells, 7 days incubation, cells without a unit of their own (μM), read-out: IC50 values for inhibition of 22RVI cells.
Consider `CC(C)(C(=O)Nc1ccc([N+](=O)[O-])c(Cl)c1)n1cc(C#CC2CN(c3ccc4c(c3)C(=O)N(C3CCC(=O)NC3=O)C4=O)C2)cn1` (stereo not shown) [Compound 25, N-(3-chloro-4-nitrophenyl)-2-(4-((1-(2-(2,6-dioxopiperidin-3-yl)-1,3-dioxoisoindolin-5-yl)azetidin-3-yl)ethynyl)-1H-pyrazol-1-yl)-2-methylpropanamide], for which the concentration for half-maximal inhibition (IC50) is below 1000 nM.
Still for that read-out and setting: with `O=C1CCC(N2C(=O)c3ccc(N4CC5CC(CN6CCC(c7cnn(C8(C(=O)Nc9ccc(C(F)(F)F)cc9Cl)CCC8)c7)CC6)CC5C4)cc3C2=O)C(=O)N1` (stereo not shown) [Compound 91, N-(2-chloro-4-(trifluoromethyl)phenyl)-1-(4-(1-((2-(2-(2,6-dioxopiperidin-3-yl)-1,3-dioxoisoindolin-5-yl)octahydrocyclopenta[c]pyrrol-5-yl)methyl)piperidin-4-yl)-1H-pyrazol-1-yl)cyclobutane-1-carboxamide] the figure was below 1000 nM; with `CC(C)(C(=O)Nc1ccc(C#N)c2ncccc12)n1cc(C#CC2CN(c3ccc4c(c3)C(=O)N(C3CCC(=O)NC3=O)C4=O)C2)cn1` (stereo not shown) [Compound 43, N-(8-cyanoquinolin-5-yl)-2-(4-((1-(2-(2,6-dioxopiperidin-3-yl)-1,3-dioxoisoindolin-5-yl)azetidin-3-yl)ethynyl)-1H-pyrazol-1-yl)-2-methylpropanamide], below 1000 nM; with `O=C1CCC(N2C(=O)c3ccc(N4CC(N5Cc6cn(C7(C(=O)Nc8ccc(C(F)(F)F)cc8Cl)CCC7)nc6C5)C4)cc3C2=O)C(=O)N1` (stereo not shown) [Compound 197, N-(2-chloro-4-(trifluoromethyl)phenyl)-1-(5-(1-(2-(2,6-dioxopiperidin-3-yl)-1,3-dioxoisoindolin-5-yl)azetidin-3-yl)-5,6-dihydropyrrolo[3,4-c]pyrazol-2 (4H)-yl)cyclobutane-1-carboxamide], below 1000 nM.
Still for that read-out and setting: with `CC(C)(C(=O)Nc1ccc(C#N)cc1F)n1cc(C#CC2CN(c3ccc4c(c3)C(=O)N(C3CCC(=O)NC3=O)C4=O)C2)cn1` (stereo not shown) [Compound 27, N-(4-cyano-2-fluorophenyl)-2-(4-((1-(2-(2,6-dioxopiperidin-3-yl)-1,3-dioxoisoindolin-5-yl)azetidin-3-yl)ethynyl)-1H-pyrazol-1-yl)-2-methylpropanamide] the figure was below 1000 nM; with `COc1cc(NC(=O)C(C)(C)n2cc(C#CC3CN(c4ccc5c(c4)C(=O)N(C4CCC(=O)NC4=O)C5=O)C3)cn2)ccc1C#N` (stereo not shown) [Compound 23, N-(4-cyano-3-methoxyphenyl)-2-(4-((1-(2-(2,6-dioxopiperidin-3-yl)-1,3-dioxoisoindolin-5-yl)azetidin-3-yl)ethynyl)-1H-pyrazol-1-yl)-2-methylpropanamide], below 1000 nM.
